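A five-concentration, 48-hour dose response in 96-well plates underlies each endpoint, interpolated linearly between surrounding concentrations. At the GI50, growth is halved.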 The source made the active and inactive calls. Rule as the data show it: active = GI50 up to about 1.1 µM and inactive = higher.
Legend:
Assay in all cases: NCI anticancer screen, dose series, 48 h
[1] = system: Hs-578T
[2] = system: SNB-19
[3] = system: Malme-3M
[4] = system: IGROV-1
[5] = system: UO-31
[6] = system: RXF 393
[7] = system: OVCAR-8
[8] = system: HCT-15
[9] = system: SK-MEL-5
[10] = system: SF-268
[11] = system: CAKI-1
[12] = system: MDA-MB-231
[13] = system: OVCAR-4
[14] = system: OVCAR-3
[15] = system: BT-549
[16] = system: ACHN
[17] = system: K562
[18] = system: U-251
[19] = system: NCI/ADR-RES
[20] = system: NCI-H460
[21] = system: SK-OV-3
[22] = system: EKVX
[23] = system: HOP-62
[24] = system: OVCAR-5
[25] = system: PC-3
[26] = system: TK-10
[27] = system: NCI-H522
[28] = system: SF-295
[29] = system: 786-0
[30] = system: SR
[31] = system: COLO 205
[32] = system: HOP-92
[33] = system: SK-MEL-28
[34] = system: LOX IMVI
[35] = system: MDA-MB-435
[36] = system: UACC-257
[37] = system: M14
[38] = system: HCT-116
[39] = system: MCF7
[40] = system: SNB-75
[41] = system: A498
[42] = system: NCI-H23
[43] = system: DU-145
[44] = system: RPMI-8226
[45] = system: UACC-62
[46] = system: A549
[47] = system: KM12
[48] = system: MOLT-4
[49] = system: SW-620
[50] = system: SN12C
[51] = system: HL-60
[52] = system: T47D
[53] = system: SF-539
[54] = system: HT-29
[55] = system: NCI-H226
[56] = system: SK-MEL-2
[57] = system: CCRF-CEM
[58] = system: HCC 2998

OC1CCN(c2c3ccccc3nc3ccccc23)CC1
GI50 [1]: 35.1 µM (inactive)
GI50 [2]: 27.9 µM (inactive)
GI50 [3]: 9.82 µM (inactive)
GI50 [4]: 14.6 µM (inactive)
GI50 [5]: 2.45 µM (inactive)
GI50 [6]: 4.55 µM (inactive)
GI50 [7]: 24.8 µM (inactive)
GI50 [8]: 16.5 µM
GI50 [9]: 19.7 µM (inactive)
GI50 [10]: 17.2 µM (inactive)
GI50 [11]: 20.1 µM (inactive)
GI50 [12]: 25.1 µM (inactive)
GI50 [13]: 17.6 µM (inactive)
GI50 [14]: 7.23 µM (inactive)
GI50 [15]: 17.7 µM (inactive)
GI50 [16]: 8.71 µM (inactive)
GI50 [17]: 4.01 µM (inactive)
GI50 [18]: 21.5 µM (inactive)
GI50 [19]: > 100 µM (inactive)
GI50 [20]: 21.3 µM (inactive)
GI50 [21]: 39.7 µM (inactive)
GI50 [22]: 55.2 µM (inactive)
GI50 [23]: 34.4 µM (inactive)
GI50 [24]: 51.8 µM (inactive)
GI50 [25]: 25.5 µM (inactive)
GI50 [26]: 4.03 µM (inactive)
GI50 [27]: 2.92 µM (inactive)
GI50 [28]: 27.9 µM (inactive)
GI50 [29]: 4.99 µM (inactive)
GI50 [30]: 2.77 µM (inactive)
GI50 [31]: 3.13 µM (inactive)
GI50 [32]: 6.9 µM (inactive)
GI50 [33]: 2.69 µM (inactive)
GI50 [34]: 4.52 µM (inactive)
GI50 [35]: 19.7 µM (inactive)
GI50 [36]: 20.4 µM (inactive)
GI50 [37]: 6.92 µM (inactive)
GI50 [38]: 4.84 µM (inactive)
GI50 [39]: 2.79 µM (inactive)
GI50 [40]: 23.8 µM (inactive)
GI50 [41]: 19 µM (inactive)
GI50 [42]: 8.02 µM (inactive)
GI50 [43]: 5.22 µM (inactive)
GI50 [44]: 4.82 µM (inactive)
GI50 [45]: 35.5 µM (inactive)
GI50 [46]: 44.4 µM (inactive)
GI50 [47]: 37.2 µM (inactive)
GI50 [48]: 4.73 µM (inactive)
GI50 [49]: 3.36 µM (inactive)
GI50 [50]: 32.4 µM (inactive)
GI50 [51]: 8.61 µM (inactive)
GI50 [52]: 1.51 µM (inactive)
GI50 [53]: 33 µM (inactive)
GI50 [54]: 2.28 µM (inactive)
GI50 [55]: 34.2 µM (inactive)
GI50 [56]: 5.52 µM (inactive)

O=C(c1ccccc1)N1CCC(Nc2nccs2)O1 (centres undefined)
GI50 [1]: > 10 µM (inactive)
GI50 [2]: > 10 µM (inactive)
GI50 [3]: > 10 µM (inactive)
GI50 [4]: > 10 µM (inactive)
GI50 [5]: > 10 µM (inactive)
GI50 [6]: > 10 µM (inactive)
GI50 [7]: > 10 µM (inactive)
GI50 [8]: > 10 µM
GI50 [9]: > 10 µM (inactive)
GI50 [10]: > 10 µM (inactive)
GI50 [11]: > 10 µM (inactive)
GI50 [12]: > 10 µM (inactive)
GI50 [13]: > 10 µM (inactive)
GI50 [14]: > 10 µM (inactive)
GI50 [15]: > 10 µM (inactive)
GI50 [16]: > 10 µM (inactive)
GI50 [17]: > 10 µM (inactive)
GI50 [19]: > 10 µM (inactive)
GI50 [20]: > 10 µM (inactive)
GI50 [21]: > 10 µM (inactive)
GI50 [22]: > 10 µM (inactive)
GI50 [23]: > 10 µM (inactive)
GI50 [24]: > 10 µM (inactive)
GI50 [25]: > 10 µM (inactive)
GI50 [26]: > 10 µM (inactive)
GI50 [27]: > 10 µM (inactive)
GI50 [28]: > 10 µM (inactive)
GI50 [29]: > 10 µM (inactive)
GI50 [30]: > 10 µM (inactive)
GI50 [31]: > 10 µM (inactive)
GI50 [33]: > 10 µM (inactive)
GI50 [34]: > 10 µM (inactive)
GI50 [35]: > 10 µM (inactive)
GI50 [36]: > 10 µM (inactive)
GI50 [37]: > 10 µM (inactive)
GI50 [38]: > 10 µM (inactive)
GI50 [39]: > 10 µM (inactive)
GI50 [40]: > 10 µM (inactive)
GI50 [42]: > 10 µM (inactive)
GI50 [43]: > 10 µM (inactive)
GI50 [57]: > 10 µM (inactive)
GI50 [44]: > 10 µM (inactive)
GI50 [58]: > 10 µM (inactive)
GI50 [46]: > 10 µM (inactive)
GI50 [48]: > 10 µM (inactive)
GI50 [49]: > 10 µM (inactive)
GI50 [50]: > 10 µM (inactive)
GI50 [51]: > 10 µM (inactive)
GI50 [52]: > 10 µM (inactive)
GI50 [53]: > 10 µM (inactive)
GI50 [54]: > 10 µM (inactive)
GI50 [55]: > 10 µM (inactive)
GI50 [56]: > 10 µM (inactive)

From ChEMBL document CHEMBL1201862, “PubChem BioAssay data set” (2004)
